Measured values as given in patent publication US20250304990A1, “HERBICIDE RESISTANCE” (SYNGENTA CROP PROTECTION AG, priority 2021, published 2025).
Values joined by “and” are separate entries in the source; they are usually repeats but may differ in a detail not shown here. Equal values may be shown once.

Experiments:
[1] = system: Cf-496-8; assay: Dose response test, growth in 96-well plates; type: cell-based, Chlorella fusca; details: strain Cf-496-8 (M278L & F279I); no growth, visual inspection
Experimental: (§1) Dose response tests with B5U were set-up in 96-well, flat bottomed plates. 200 μl medium was used in each well. 2 μl of 6 day old culture was added to each well, then 2 μl of DMSO or dilution of test compound were added to respective wells. 2-fold dilutions starting at 100 ppm were used per well. Plates were incubated at 25° C., 50 μmol/m^2/s, 16 hour photoperiod.
(§2) This was assessed by a visual inspection of growth in the 96-well plate. The inhibitor concentration at which no growth is observed is then defined as the LD.
(§3) Starting dose was 100 ppm and decreasing with 2-fold dilutions with C. fusca wt, the five HST mutants and the 10 compounds to which the wt is sensitive. Plates were incubated at 25° C., 50 μmol/m2/s, 16 hour photoperiod.

[2] = system: Cf-496-28; assay: Dose response test, growth in 96-well plates; type: cell-based, Chlorella fusca; details: strain Cf-496-28 (V276A); no growth, visual inspection
Experimental: as §1, §2, §3

[3] = system: Cf WT; assay: Dose response test, growth in 96-well plates; type: cell-based, Chlorella fusca; details: strain Cf WT; concentration at which no growth is observed, visual inspection
Experimental: as §1, §2, §3

[4] = system: Cf-496-15; assay: Dose response test, growth in 96-well plates; type: cell-based, Chlorella fusca; details: strain Cf-496-15 (T277N); no growth, visual inspection
Experimental: as §1, §2, §3

[5] = system: Cf-496-19; assay: Dose response test, growth in 96-well plates; type: cell-based, Chlorella fusca; details: strain Cf-496-19 (F275I); no growth, visual inspection
Experimental: as §1, §2, §3

[6] = system: Cf-496-94; assay: Dose response test, growth in 96-well plates; type: cell-based, Chlorella fusca; details: strain Cf-496-94 (F275L); no growth, visual inspection
Experimental: as §1, §2, §3

[7] = system: Cf-496-90; assay: Dose response test, growth in 96-well plates; type: cell-based, Chlorella fusca; details: strain Cf-496-90; no growth, visual inspection
Experimental: as §1, §2

[8] = system: Cf-496-82; assay: Dose response test, growth in 96-well plates; type: cell-based, Chlorella fusca; details: strain Cf-496-82; no growth, visual inspection
Experimental: as §1, §2

[9] = system: Cf-496-13; assay: Dose response test, growth in 96-well plates; type: cell-based, Chlorella fusca; details: strain Cf-496-13; no growth, visual inspection
Experimental: as §1, §2

[10] = system: Cf-496-35; assay: Dose response test, growth in 96-well plates; type: cell-based, Chlorella fusca; details: strain Cf-496-35; no growth, visual inspection
Experimental: as §1, §2

[11] = system: Cf-496-97; assay: Dose response test, growth in 96-well plates; type: cell-based, Chlorella fusca; details: strain Cf-496-97; no growth, visual inspection
Experimental: as §1, §2

[12] = system: Cf-496-54; assay: Dose response test, growth in 96-well plates; type: cell-based, Chlorella fusca; details: strain Cf-496-54; no growth, visual inspection
Experimental: as §1, §2

[13] = system: Cf-496-88; assay: Dose response test, growth in 96-well plates; type: cell-based, Chlorella fusca; details: strain Cf-496-88; no growth, visual inspection
Experimental: as §1, §2

[14] = system: Cf-496-51; assay: Dose response test, growth in 96-well plates; type: cell-based, Chlorella fusca; details: strain Cf-496-51 (F275I); no growth, visual inspection
Experimental: as §1, §2

[15] = system: Cf-496-21; assay: Dose response test, growth in 96-well plates; type: cell-based, Chlorella fusca; details: strain Cf-496-21; no growth, visual inspection
Experimental: as §1, §2

[16] = system: Cf-496-47; assay: Dose response test, growth in 96-well plates; type: cell-based, Chlorella fusca; details: strain Cf-496-47; no growth, visual inspection
[17] = system: D4294 (T278N mutant Arabidopsis thaliana HST) containing tobacco plant; assay: Herbicide damage score after spraying, Example 3; type: in vivo; details: T1 B5u 500 gai/ha; D4294 T278N; averaged across transgenic population
Experimental: (§4) In order to determine if the newly discovered mutations detailed in Example 1 confer resistance to HST inhibiting compounds when expressed in plants, GM tobacco lines are to be produced and tested with HST inhibiting compounds. Transgenic tobacco plants expressing the Arabidopsis HST gene with and without mutations were tested.
(§5) Populations of transgenic tobacco comprising 20-30 transgenic events per plant transformation constructs were generated as described in Example 2. These lines were clonally propagated and 1 clone per event was sprayed with 500, 100 or 50 g ai/ha of compound 1+0.2% Genapol X080 with a spray volume of 200 L/Ha (“g ai/ha” refers to grams of active compound per hectare).
(§6) Herbicidal damage was visually assessed across the population and a herbicide damage score given at 7 and 14 days. A score of 0 indicates no visible damage or stunting whereas a score of 100 indicates a complete death of the plant. 20 transgenic events (i.e. individual transgenic plants) from each GM tobacco line were transplanted to soil 1 week prior to spraying with HST inhibiting compounds. WT tobacco was included as a control.
(§7) The values in Tables 8 to 14 below refer to percentage of damage to the tested plants and show the damage scores for 20 populations of plants expressing either Arabidopsis WT HST gene (SEQ ID NO. 14), the Arabidopsis HST mutated gene according to SEQ ID NO. 27, the Arabidopsis HST mutated gene according to SEQ ID NO. 28, the Arabidopsis HST mutated gene according to SEQ ID NO. 29, the Arabidopsis HST mutated gene according to SEQ ID NO. 30, or the Arabidopsis HST mutated gene according to SEQ ID NO. 31. A control population of wild-type Samsun tobacco was also assessed for herbicide damage. […] However the mutated versions of the HST gene carrying the F276I, V277A, F280I or F280L mutations (SEQ ID NOs: 27, 28, 30 or 31) clearly display increased tolerance.

[18] = system: WT tobacco; assay: Herbicide damage score after spraying, Example 3; type: in vivo; details: T1 B5u 500 gai/ha; WT tobacco control; per plant
Experimental: as §4, §5, §6, §7

[19] = system: D4292 (F276I mutant Arabidopsis thaliana HST) containing tobacco plant; assay: Herbicide damage score after spraying, Example 3; type: in vivo; details: T1 B5u 500 gai/ha, averaged across transgenic population
Experimental: as §4, §5, §6, §7

[20] = system: D4291 (WT Arabidopsis thaliana HST) containing tobacco plant; assay: Herbicide damage score after spraying, Example 3; type: in vivo
Experimental: as §4, §5, §6, §7

[21] = system: D4293 (V277A mutant Arabidopsis thaliana HST) containing tobacco plant; assay: Herbicide damage score after spraying, Example 3; type: in vivo; details: T1 B5u 500 gai/ha, averaged across transgenic population
Experimental: as §4, §5, §6, §7

[22] = system: D4295 (F280I mutant Arabidopsis thaliana HST) containing tobacco plant; assay: Herbicide damage score after spraying, Example 3; type: in vivo; details: T1 B5u 500 gai/ha, averaged across transgenic population
Experimental: as §4, §5, §6, §7

With `Cc1nn(C)c(=O)c(-c2c(F)ccc(Cl)c2CCc2ccc(C(F)(F)F)cc2)c1OC(=O)C(C)C` [B5u, [5-[3-chloro-6-fluoro-2-[2-[4-(trifluoromethyl)phenyl]ethyl]phenyl]-1,3-dimethyl-6-oxo-pyridazin-4-yl]2-methylpropanoate] as the molecule, how does the “LD (lethal dose)” value [1] read?
The value was over 100 ppm.

What about the “LD (lethal dose)” value [2] of the same molecule?
Its value is over 100 ppm.

And the “LD (lethal dose)” value [3]?
The value was 6.25 ppm.

What about the “LD (lethal dose)” value [4] of the same molecule?
Its value is over 100 ppm.

What about the “LD (lethal dose)” value [5] of the same molecule?
Its value is over 100 ppm.

And the “LD (lethal dose)” value [6]?
The value was over 100 ppm.

What about the “LD (lethal dose)” value [7] of the same molecule?
Its value is over 100 ppm.

What about the “LD (lethal dose)” value [8] of the same molecule?
The value was over 100 ppm.

And the “LD (lethal dose)” value [9]?
Its value is 6.25 ppm.

And the “LD (lethal dose)” value [10]?
The value was over 100 ppm.

What about the “LD (lethal dose)” value [11] of the same molecule?
The value was over 100 ppm.

What about the “LD (lethal dose)” value [12] of the same molecule?
The value was over 100 ppm.

And the “LD (lethal dose)” value [13]?
The value was over 100 ppm.

And the “LD (lethal dose)” value [14]?
Its value is over 100 ppm.

What about the “LD (lethal dose)” value [15] of the same molecule?
Its value is over 100 ppm.

And the “LD (lethal dose)” value [16]?
The value was over 100 ppm.

What about the Average percentage damage [17] of the same molecule?
The Average percentage damage was 76%.

And the percentage of damage [18]?
The percentage of damage was 95% and 90%.

And the Average percentage damage [19]?
The Average percentage damage was 28%.

And the Average percentage damage ([20]; T1 B5u 500 gai/ha, D4291, mutation n.a., averaged across transgenic population)?
Its Average percentage damage is 55%.

What about the tolerance to herbicide ([20]; overexpression of Arabidopsis HST gene (SEQ ID NO.14) in tobacco) of the same molecule?
Its tolerance to herbicide is “does not increase tolerance”.

And the Average percentage damage [21]?
The Average percentage damage was 22%.

What about the Average percentage damage [22] of the same molecule?
Its Average percentage damage is 35%.
